Here are results for 13 molecules from PubChem BioAssay (NCI).

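96-well plates; 48 h exposure; 5 concentrations. Endpoints by linear interpolation between flanking doses. Not reached: highest tested concentration assigned. At the TGI there is no net growth.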

What all share (experiment): DTP human tumour cell line panel, 48 h
The test system of assay [1] is SF-539 CNS.
The subject of assay [2] is NCI-H460 lung.
The test system of assay [3] is MOLT-4 leukemia.
In assay [4] the test system is SK-MEL-2 melanoma.
Assay [5] concerns MALME-3M melanoma.
For assay [6], the system named is SF-295 CNS.
For assay [7], the system named is MDA-MB-435.
In assay [8] the test system is PC-3 prostate.
The test system of assay [9] is SNB-19 CNS.
Assay [10] concerns OVCAR-3 ovarian.
The subject of assay [11] is HOP-62 NSCLC.

For the molecule `C(=Nc1ccc(-c2nc3ccccc3[nH]2)cc1)c1cccs1`, the TGI in assay [1], in [2], in assay [3], in assay [4], in assay [5] and in assay [6] was more than 100 µM each time. Further, the TGI in assay [7], in assay [8], in assay [9], in assay [10] and in assay [11] was more than 100 µM each time.
On to `C[N+](C)(C)CC1CCCCCCCCCCC1=O` (stereo not drawn), for which the TGI in [1], in [2], in assay [3], in [4], in assay [5] and in [6] was more than 100 µM in each case. In addition, the concentration for total growth inhibition (TGI) in assay [7], in assay [8], in assay [9], in assay [10] and in assay [11] was more than 100 µM in each case.
Take `COC(CNC(=O)C(C)NC(=O)CCc1ccccc1)OC` (stereo not drawn): the TGI in assay [1], in assay [2], in assay [3], in assay [4], in assay [5] and in [6] was more than 100 µM throughout. In addition, the TGI in assay [7], in [8] and in assay [9] was more than 100 µM in each case.
Consider `CCOC(=O)N/N=C(/N)c1cccc([N+](=O)[O-])c1`, for which the TGI in [1], in [2], in [3], in [4], in assay [5] and in assay [6] was more than 100 µM each time. The TGI in assay [7], in [8], in assay [9], in assay [10] and in [11] was more than 100 µM throughout.
Take `Cc1cc(S(=O)(=O)N=C2N(Cc3ccccc3)CCN2Cc2ccccc2)c(S)cc1Cl`: the TGI in [1], in assay [2], in assay [3], in assay [5], in assay [6] and in assay [7] was more than 100 µM throughout. For the same molecule, the TGI in [8], in assay [9], in [10] and in assay [11] was more than 100 µM throughout.
For `CC1(C)NC2C(=O)c3c([nH]c4ccccc34)[C@]3(C)CCC1CC23` (stereo partly drawn), the TGI in [1], in assay [2], in assay [3], in assay [4], in [5] and in assay [6] was more than 100 µM each time. Moreover, the TGI in assay [7], in [8], in [10] and in assay [11] was more than 100 µM in each case.
As for `COc1cc(/C=C2/C[C@H]3[C@@H]4CC=C5C[C@@H](O)CC[C@]5(C)[C@H]4CC[C@]3(C)NC2=O)cc(OC)c1OC`, the TGI in assay [1] is more than 100 µM; in [2] it was 25.9 µM; in assay [3] it was more than 100 µM; in assay [4] it was more than 62.9 µM; in assay [5], 32.8 µM; in assay [6] it was more than 65.3 µM. The TGI in [7] was more than 100 µM; in assay [8], 79.4 µM; in assay [9] it was more than 84.7 µM; in [10] it was more than 100 µM; in [11] it was more than 89.1 µM.
For the molecule `NC(N)=NCCC[C@H](N)C(=O)NCC(=O)N[C@@H](CC(=O)O)c1ncc(NC(=O)C(F)(F)F)o1`, the TGI in [1], in assay [2], in assay [3], in assay [4], in [5] and in assay [6] was more than 25 µM each time. Besides, the TGI in assay [7], in assay [8], in assay [10] and in assay [11] was more than 25 µM each time.
As to `CCCCN1C(=O)N(c2ccc(OCC)cc2)C2N(CCCC)C1C(C)(C)C2(C)C` (stereo not drawn), the total growth inhibition concentration (TGI) in assay [1] was 41.9 µM; in assay [2], more than 100 µM; in [4], more than 100 µM; in assay [5], 73.1 µM; in assay [6], more than 100 µM; in assay [7], 97.3 µM. In addition, the TGI in assay [8] was more than 100 µM; in assay [9], more than 100 µM; in assay [10], 54 µM; in [11], more than 100 µM.
As to `N=C(N)c1ccc(C(NC(=O)CNS(=O)(=O)c2ccc3ccccc3c2)P(=O)(Oc2ccccc2)Oc2ccccc2)cc1` (stereo not drawn), the TGI is 71.3 µM in assay [1]; more than 100 µM in assay [2]; 92.4 µM in assay [3]; more than 100 µM in assay [4]; more than 100 µM in [5]; more than 100 µM in [7]. Moreover, the TGI in [8], in assay [9], in assay [10] and in [11] was more than 100 µM throughout.
For the molecule `CCOP(C)(=O)C(N)Cc1ccc(OC)c(OC)c1` (stereo not drawn), the concentration for total growth inhibition (TGI) in assay [1], in [2], in [3], in [5], in assay [6] and in assay [7] was more than 100 µM throughout. The TGI in [8], in assay [9], in assay [10] and in assay [11] was more than 100 µM in each case.
For the molecule `Cc1c(S(=O)(=O)/N=C(\NO)Nc2ccc(Cl)c(Cl)c2)sc2ccc(Cl)cc12`, the TGI in assay [1] is 45.1 µM; in [3] it was more than 100 µM; in [4], 38.6 µM; in assay [5], 42.6 µM; in [6], 33.6 µM; in [7], 37.3 µM. Moreover, the concentration for total growth inhibition (TGI) turned out to be 36.7 µM in [8], 45.1 µM in [9], 31.1 µM in [10] and 42.3 µM in assay [11].
For the molecule `Cc1ccc(-c2c(C#N)c(-c3ccc(Cl)cc3)c(C#N)c(=O)n2NS(=O)(=O)c2ccc(C)cc2)cc1`, the TGI in assay [1] was 50.1 µM; in assay [2] it was more than 100 µM; in assay [3], 40.6 µM; in assay [4], 40.4 µM; in assay [5], more than 100 µM; in assay [6] it was more than 100 µM. Moreover, the TGI was more than 100 µM in [7], 45 µM in assay [8], more than 100 µM in assay [9] and more than 100 µM in assay [11].
